Assay results from article PMC7018514 (eLife, 2020).

Legend:
human IMPDH2 [1] = biological target: T1, human IMPDH2 (Homo sapiens, UniProt P12268, Y12A); assay: NADH absorbance ([…] nm) activity assay with GTP dose-response; […] inhibited at […] GTP; assay type: biochemical
T1 construct: full-length hIMPDH2, non-assembling mutant

human IMPDH2 [2] = biological target: T2, human IMPDH2 (Homo sapiens, UniProt P12268); assay: cryo-EM structures ([…] Å fully compressed filament segment; […] Å free octamer), plus GTP inhibition kinetics of purified enzyme; assay type: biochemical
T2 construct: full-length hIMPDH2 (SUMO tag removed)

human IMPDH2 [3] = biological target: T2, human IMPDH2; assay: cryo-EM structure ([…] Å filament assembly interface); NAD+ saturation kinetics; assay type: binding

T2 sequence (P12268 2-514): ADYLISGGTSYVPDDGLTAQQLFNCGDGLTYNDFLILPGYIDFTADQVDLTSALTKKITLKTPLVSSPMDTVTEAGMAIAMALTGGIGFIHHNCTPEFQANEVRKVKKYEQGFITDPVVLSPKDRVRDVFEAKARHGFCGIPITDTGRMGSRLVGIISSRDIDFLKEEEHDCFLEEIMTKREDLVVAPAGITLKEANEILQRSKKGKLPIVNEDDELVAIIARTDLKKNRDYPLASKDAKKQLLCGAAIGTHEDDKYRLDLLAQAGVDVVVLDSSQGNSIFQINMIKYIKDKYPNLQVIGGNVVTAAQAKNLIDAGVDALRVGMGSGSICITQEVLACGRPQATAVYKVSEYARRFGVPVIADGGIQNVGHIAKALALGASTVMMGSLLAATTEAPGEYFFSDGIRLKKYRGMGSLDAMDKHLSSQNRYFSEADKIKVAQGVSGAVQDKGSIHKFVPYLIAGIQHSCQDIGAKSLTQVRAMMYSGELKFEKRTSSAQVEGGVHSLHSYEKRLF
T1 sequence (P12268 2-514 Y12A): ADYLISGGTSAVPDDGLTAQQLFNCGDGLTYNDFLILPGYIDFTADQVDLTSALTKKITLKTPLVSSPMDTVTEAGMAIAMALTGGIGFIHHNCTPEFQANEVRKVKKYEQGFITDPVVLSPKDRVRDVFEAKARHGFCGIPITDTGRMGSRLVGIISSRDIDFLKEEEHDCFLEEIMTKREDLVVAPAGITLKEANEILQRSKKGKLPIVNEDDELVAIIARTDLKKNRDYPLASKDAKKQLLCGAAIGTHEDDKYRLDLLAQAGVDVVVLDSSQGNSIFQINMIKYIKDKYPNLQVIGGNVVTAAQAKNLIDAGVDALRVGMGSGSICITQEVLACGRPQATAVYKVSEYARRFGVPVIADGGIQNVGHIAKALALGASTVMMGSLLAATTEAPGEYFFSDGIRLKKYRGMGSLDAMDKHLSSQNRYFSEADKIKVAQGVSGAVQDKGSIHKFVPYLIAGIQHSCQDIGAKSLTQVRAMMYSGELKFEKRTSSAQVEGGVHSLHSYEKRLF

IC50 (human IMPDH2 [1]) | IC50 (human IMPDH2 [2]) | SMILES | cryo-EM structure (3.0 Å filament assembly interface); NAD+ saturation kinetics (human IMPDH2 [3])
< 2000 µM | > 2000 µM | Nc1nc2c(ncn2[C@@H]2O[C@H](COP(=O)(O)OP(=O)(O)OP(=O)(O)O)[C@@H](O)[C@H]2O)c(=O)[nH]1 [GTP] | –
– | – | NC(=O)c1ccc[n+]([C@@H]2O[C@H](COP(=O)([O-])OP(=O)(O)OC[C@H]3O[C@@H](n4cnc5c(N)ncnc54)[C@H](O)[C@@H]3O)[C@@H](O)[C@H]2O)c1 [NAD+] | There is strong density in the both the IMP and NAD^+ binding sites.
